Data set [1] can be described thus: Effect on cell proliferation assessed as radiolabeled thymidine incorporation in cell-based assay. It counts as functional. The settings on record: Homo sapiens. For orientation: Dividing cells build labelled thymidine or BrdU into new DNA.
Data set [2] concerns the target Glycogen synthase kinase-3 beta (Homo sapiens, UniProt P49841). The experiment in a line: Inhibition of human GSK3-beta.
The nature of data set [3]: Inhibition of human CDK2/cyclin A.
The nature of data set [4]: Inhibition of human MAPK.
The species entered for the next data set is Mus musculus. As to the kind of experiment: Protein binding in mouse. It counts as ADME, organism-based. Conditions: in vivo.
The nature of data set [5]: AUC in monkey at 10 mg/kg. It is filed as ADME, organism-based, Macaca mulatta. Set-up: dose 10 mg/kg. The settings on record: rhesus monkey, plasma.
The species named for the next data set is Rattus norvegicus. The experiment in a line: Protein binding in rat. It counts as ADME, organism-based. The settings on record: in vivo.
The nature of data set [6]: Cmax in monkey at 10 mg/kg. It is filed as ADME, organism-based, Macaca mulatta. Also on record: dose 10 mg/kg. Conditions: rhesus monkey, in vivo.
A short description of data set [7]: AUC in dog at 5 mg/kg. It is filed as ADME, organism-based, Canis lupus familiaris. Also on record: dose 5 mg/kg. Conditions: plasma.
Data set [8] is described as follows: Tmax in rat at 10 mg/kg. It counts as ADME, organism-based. Set-up: dose 10 mg/kg. Conditions: in vivo.
The species entered for the next data set is Canis familiaris. The experiment in a line: Protein binding in dog. It counts as ADME, organism-based, Canis lupus familiaris. The settings on record: in vivo.
Data set [9] can be described thus: Cmax in dog at 5 mg/kg, po. It counts as ADME, organism-based, Canis lupus familiaris. Set-up: dose 5 mg/kg, route oral. The settings on record: in vivo.
Data set [10] is described as follows: AUC in rat at 10 mg/kg. It is filed as ADME, organism-based. Also on record: dose 10 mg/kg. Conditions: plasma.
Data set [11] in a line: AUC in mouse at 40 mg/kg. Set-up: dose 40 mg/kg. It counts as ADME, organism-based. Conditions: plasma.
The nature of data set [12]: Tmax in monkey at 10 mg/kg. It counts as ADME, organism-based, Macaca mulatta. Set-up: dose 10 mg/kg. The settings on record: rhesus monkey, in vivo.
For another data set, the system named is Rhesus monkey. The experiment in a line: Protein binding in monkey. It is filed as ADME, organism-based, Macaca mulatta. The settings on record: in vivo.
Data set [13] is described as follows: Cmax in rat at 10 mg/kg. It counts as ADME, organism-based. Set-up: dose 10 mg/kg. The settings on record: in vivo.
Data set [14] in a line: Cmax in mouse at 40 mg/kg. It is filed as ADME, organism-based. Also on record: dose 40 mg/kg. The settings on record: in vivo.
The species named for another data set is Homo sapiens. As to the kind of experiment: Protein binding in human. It counts as ADME, organism-based. Conditions: in vivo.
Data set [15] can be described thus: Tmax in mouse at 40 mg/kg. It is filed as ADME, organism-based. Also on record: dose 40 mg/kg. The settings on record: in vivo.
A further data set relates to A2780. The experiment in a line: Antitumor activity against A2780 cells xenografted in mouse at 40 mg/kg, po QD for 10 days. The settings on record: A2780, 240 h. It is filed as functional.

Values joined by “and” are separate entries in the source; they are usually repeats but may differ in a detail not shown here. Identical values can stand only once.

Chain of Glycogen synthase kinase-3 beta (P49841 whole entry): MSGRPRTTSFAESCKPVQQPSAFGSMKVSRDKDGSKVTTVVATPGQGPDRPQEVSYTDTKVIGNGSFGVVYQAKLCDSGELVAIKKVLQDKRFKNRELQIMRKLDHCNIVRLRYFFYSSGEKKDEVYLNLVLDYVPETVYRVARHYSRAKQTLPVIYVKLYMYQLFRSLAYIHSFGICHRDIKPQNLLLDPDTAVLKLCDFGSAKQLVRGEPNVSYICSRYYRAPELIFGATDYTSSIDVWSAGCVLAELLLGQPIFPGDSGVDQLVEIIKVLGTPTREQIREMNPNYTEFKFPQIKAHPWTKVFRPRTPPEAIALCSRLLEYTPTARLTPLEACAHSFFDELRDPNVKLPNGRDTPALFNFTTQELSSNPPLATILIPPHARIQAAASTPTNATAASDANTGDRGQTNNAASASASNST

The IC50 is the concentration at which inhibition is half-maximal. On to `CNc1cc(-c2ccccc2Cl)nc2c(Br)cnn12`, for which the IC50 in [1] was 1800 nM; in data set [2], 247 nM; in data set [3], 20 nM.

As for `OC(c1cnn2c(NCc3cccnc3)cc(-c3ccccc3)nc12)C(F)(F)F` (stereo unspecified), half-maximal inhibition in data set [3] (IC50) was put at 3400 nM.

Turning to `c1ccc(-c2cc(NCc3cccnc3)n3ncc(-c4ccccc4)c3n2)cc1`, in [3], the IC50 was more than 50000 nM.

For `CN(C)Cc1cnn2c(NCc3cccnc3)cc(-c3ccccc3)nc12`, the IC50 in [3] turned out to be 34000 nM.

The molecule `CC(=O)c1cnn2c(NCc3cccnc3)cc(-c3ccccc3)nc12` registered a concentration for half-maximal inhibition (IC50) in data set [3] of more than 50000 nM.

Consider `OCCSc1cnn2c(NCc3cccnc3)cc(-c3ccccc3)nc12`, for which 30 nM corresponded to half-maximal inhibition in [3] (IC50).

As for `Cc1cc(NCc2cccnc2)n2ncc(Br)c2n1`, the IC50 in data set [1] came out at 1800 nM; in data set [2] it was 3530 nM; in data set [3], 60 nM.

Regarding `CSc1cc(NCc2cccnc2)n2ncc(Br)c2n1`, the IC50 turned out to be 990 nM in [1], 1180 nM in data set [2] and 38 nM in data set [3].

`Cc1ccccc1-c1cc(NCc2ccc[n+]([O-])c2)n2ncc(Br)c2n1`: the IC50 in data set [3] came out at 49 nM.

In turn, `Nc1cc(-c2ccccc2)nc2c(Br)cnn12` yielded an IC50 in [3] of 250 nM.

Take `Brc1cnn2c(NCc3cccnc3)cc(-c3ccccc3)nc12`: the IC50 turned out to be 370 nM in data set [4], 570 nM in data set [2] and 11 nM in data set [3].

As for `CCc1cnn2c(NCc3cccnc3)cc(-c3ccccc3)nc12`, the IC50 in data set [4] turned out to be 2000 nM; in [2] it was 2800 nM; in data set [3] it was 8 nM.

Take `CCCc1cnn2c(NCc3cccnc3)cc(-c3ccccc3)nc12`: in [3], half-maximal inhibition (IC50) required 890 nM.

Consider `C#Cc1cnn2c(NCc3cccnc3)cc(-c3ccccc3)nc12`, for which the IC50 in data set [4] stood at 7480 nM; in [2], 9820 nM; in [3] it was 48 nM.

`C#CCc1cnn2c(NCc3cccnc3)cc(-c3ccccc3)nc12` came in with an IC50 in [3] of 840 nM.

In [3], `c1ccc(-c2cc(NCc3cccnc3)n3ncc(C4CC4)c3n2)cc1` had an IC50 of 71 nM.

In data set [3], `CCCNc1cc(-c2ccccc2Cl)nc2c(Br)cnn12` returned an IC50 of 163 nM.

`Clc1ccccc1-c1cc(NC2CC2)n2ncc(Br)c2n1` had a concentration for half-maximal inhibition (IC50) in data set [3] of 825 nM.

Take `FC(F)(F)Cc1cnn2c(NCc3cccnc3)cc(-c3ccccc3)nc12`: in data set [3], the IC50 was determined as 710 nM.

For `COc1cnn2c(NCc3cccnc3)cc(-c3ccccc3)nc12`, the IC50 in data set [3] worked out at 1100 nM.

Turning to `Fc1ccccc1-c1cc(NCc2ccccc2)n2ncc(Br)c2n1`, the figures for the IC50 in data set [2] and in data set [3] were 15200 nM and 300 nM, respectively.

Regarding `Brc1cnn2c(NCc3cccnc3)cc(-c3ccco3)nc12`, the 50% inhibitory concentration (IC50) turned out to be 15200 nM in data set [1], 310 nM in data set [2] and 8 nM in data set [3].

Turning to `Brc1cnn2c(NCOc3cccnc3)cc(-c3ccccc3)nc12`, the IC50 worked out at 140 nM in data set [1], 600 nM in data set [2] and 34 nM in data set [3].

In the case of `CCOC(=O)c1cc(NCc2cccnc2)n2ncc(Br)c2n1`, the IC50 in [1] was 2900 nM; in [2], 790 nM; in [3], 89 nM.

For `CC(C)c1cc(NCc2cccnc2)n2ncc(Br)c2n1`, the IC50 is 950 nM in data set [1], 420 nM in [2] and 17 nM in [3].

Turning to `COc1cc(NCc2cccnc2)n2ncc(Br)c2n1`, the values for the IC50 in data set [1], in data set [2] and in data set [3] were 2000 nM, 1410 nM and 35 nM, respectively.

For the molecule `Brc1cnn2c(NCc3cccnc3)cc(C3CCNCC3)nc12`, the IC50 in [1] was determined as 160 nM; in [2] it was 410 nM; in [3] it was 16 nM.

Turning to `CC(O)c1cc(NCc2cccnc2)n2ncc(Br)c2n1` (stereo unspecified), the values for the IC50 in data set [1], in data set [2] and in data set [3] were 1400 nM, 500 nM and 38 nM, respectively.

For the molecule `Brc1cnn2c(NCc3cccnc3)cc(C3CCCCC3)nc12`, the values for the IC50 in data set [1], in data set [2] and in data set [3] were 200 nM, 27 nM and 4 nM, respectively.

With `Brc1cnn2c(NCc3cccnc3)cc(C3CCCNC3)nc12` (stereo unspecified), the IC50 in data set [1] came to 60 nM; in [2], 180 nM; in data set [3], 8 nM.

`Brc1cnn2c(NCc3cccnc3)cc(N3CCNCC3)nc12` showed an IC50 in data set [3] of 210 nM.

Regarding `Clc1ccccc1-c1cc(NCOc2cccnc2)n2ncc(Br)c2n1`, the IC50 in data set [1] amounted to 170 nM; in data set [2], 35 nM; in [3], 11 nM.

What is called AUC is the area under the concentration-time curve, a measure of exposure. Usually Cmax stands for the maximum level reached in the sampled fluid or tissue. Broadly, the Tmax is the time at which the peak concentration occurs. As a reminder, the inhibition in vivo is the relative decrease from the control value, in per cent. Take `Fc1ccccc1-c1cc(NCOc2cccnc2)n2ncc(Br)c2n1`: the Activity in the data set listed under Mus musculus is given as 90%; in the data set filed under Rattus norvegicus it was 85%; in the data set listed under Canis familiaris it was 93%; with Rhesus monkey, 89%; in the data set listed under Homo sapiens, 95%. Also, the AUC was 43 µM·h in data set [5], 2.44 µM·h in data set [7], 16.4 µM·h in data set [10] and 17.9 µM·h in data set [11]. Moreover, the IC50 came to 210 nM in data set [1], 130 nM in [2] and 13 nM in data set [3]. Besides, the Cmax in [6] came to 3200 nM; in data set [9], 2580 nM; in [13], 2290 nM; in data set [14], 6810 nM. Also, the Tmax in [8] was 2 h; in data set [12], 3.3 h; in [15] it was 2 h. In addition, in the data set with A2780, the inhibition in vivo at 40 mg/kg amounted to 96%.

For the molecule `N#CCc1cnn2c(NCc3cccnc3)cc(-c3ccccc3)nc12`, the results for the IC50 in data set [4], in data set [2] and in data set [3] were 1330 nM, 1100 nM and 49 nM, respectively.

Regarding `CCc1cc(NCc2cccnc2)n2ncc(Br)c2n1`, the IC50 in [1] stood at 520 nM; in data set [2], 920 nM; in [3], 18 nM.

On to `CNc1cc(NCc2cccnc2)n2ncc(Br)c2n1`, for which the figures for the IC50 in data set [1], in data set [2] and in [3] were 1200 nM, 4600 nM and 43 nM, respectively.

In data set [3], `C=Cc1cnn2c(NCc3cccnc3)cc(-c3ccccc3)nc12` returned an IC50 of 90 nM.

In turn, `FC(F)(F)c1cnn2c(NCc3cccnc3)cc(-c3ccccc3)nc12` had an IC50 in [3] of 95 nM.

Turning to `CC(C)c1cnn2c(NCc3cccnc3)cc(-c3ccccc3)nc12`, half-maximal inhibition in data set [3] (IC50) was put at 370 nM.

Regarding `CSc1cnn2c(NCc3cccnc3)cc(-c3ccccc3)nc12`, the half-inhibitory concentration (IC50) in data set [4] is 900 nM; in data set [2], 1800 nM; in data set [3], 7 nM.

Take `Fc1ccccc1-c1cc(Nc2ccccc2)n2ncc(Br)c2n1`: the half-maximal inhibitory concentration (IC50) in [2] turned out to be 13300 nM; in data set [3], 408 nM.

Consider `CS(=O)(=O)c1ccc(Nc2cc(-c3ccccc3Cl)nc3c(Br)cnn23)cc1`, for which the IC50 in [1] turned out to be 900 nM; in [2], 450 nM; in [3] it was 350 nM.

For `c1ccc(Cc2cnn3c(NCc4cccnc4)cc(-c4ccccc4)nc23)cc1`, the IC50 in data set [3] worked out at 16000 nM.

On to `O=[N+]([O-])c1cnn2c(NCc3cccnc3)cc(-c3ccccc3)nc12`, for which, in [3], the IC50 was more than 50000 nM.

Molecule `OCc1cnn2c(NCc3cccnc3)cc(-c3ccccc3)nc12` came in with an IC50 in data set [3] of 2170 nM.

Consider `Brc1cnn2c(NCc3cccnc3)cc(C3CC3)nc12`, for which the IC50 in [1] was 1500 nM; in data set [2], 1130 nM; in [3] it was 45 nM.

Consider `c1ccc(-c2cc(NCc3cccnc3)n3nccc3n2)cc1`, for which the half-inhibitory concentration (IC50) in [3] is 250 nM.

As for `Cc1cnn2c(NCc3cccnc3)cc(-c3ccccc3)nc12`, the IC50 amounted to 1400 nM in [4] and 72 nM in data set [3].

As for `Clc1ccccc1-c1cc(NCc2cccnc2)n2ncc(Br)c2n1`, the half-inhibitory concentration (IC50) in [1] is 500 nM; in data set [2] it was 54 nM; in [3], 4 nM and 3 nM.

`CCCCc1cnn2c(NCc3cccnc3)cc(-c3ccccc3)nc12`: in [3], inhibition was half-maximal at 1200 nM (IC50).

In turn, `Clc1cccc(-c2cc(NCc3ccncc3)n3nccc3n2)c1Cl` had an IC50 in [3] of 500 nM.

`Brc1cnn2c(NCc3cccnc3)cc(-c3cccs3)nc12`: the IC50 amounted to 750 nM in data set [1], 480 nM in data set [2] and 13 nM in [3].

`CC(=O)NCCSc1cnn2c(NCc3cccnc3)cc(-c3ccccc3)nc12`: the results for the IC50 in data set [4], in data set [2] and in data set [3] were 12000 nM, 34 nM and 2 nM, respectively.

In data set [3], `CC(Nc1cc(-c2ccccc2)nc2c(Br)cnn12)c1cccnc1` (stereo unspecified) returned an IC50 of 3000 nM.
